Results published in patent US20240376097A1, “BCL-2 Inhibitor” (BeiGene Ltd., priority 2020, published 2024).
Like-named read-outs stand apart in the source and are kept apart here.

Experiments:
[1] = molecular target: Recombinant human Bcl-2 protein (Homo sapiens (Human), UniProt P10415); assay: Bcl-2 TR-FRET Assay; format: binding
In short: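 Displacement of FITC-labelled Bak peptide (0.5 nM) from 0.05 nM human Bcl-2, detected by TR-FRET with Tb-cryptate anti-6His antibody after 1 h at room temperature. Compounds, 10-point series, preincubated 0.5 h with protein in 20 mM potassium phosphate pH 7.5, 50 mM NaCl. IC50s fitted by four-parameter logistic.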

[2] = Metabolic Stability Study, liver microsome incubation (human); format: in vitro ADME; details: human liver microsomes 0.5 mg/mL, 1 μM compound, NADPH; for microsomal CLint at 1 μM: read-out: CLint (μL × min^−1 × mg^−1) Human; for half-life at 1 μM: NA^# = very stable, beyond the detection limits, read-out: T1/2 (min) Human
In short: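 Test compounds (1 μM) incubated at 37° C with 0.5 mg/mL liver microsomes plus NADPH regenerating system; samples quenched at 0, 30 and 60 min. Parent loss measured by LC-MS/MS, giving CLint and T1/2, with CLint normalised to microsomal protein concentration.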

[3] = test system: BCL-2 G101V knock-in cell line H96 (derive from RS4;11); assay: Bcl 2-G101V Knock-In RS4;11 Cell Proliferation Assay; format: cell-based; details: Homo sapiens, RS4-11, 48 h, RS4;11 Bcl-2 G101V knock-in clone H96, 48 hrs, CellTiter-GLO, read-out: Cellular proliferation assay (IC50, nM) RS4
In short: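 CellTiter-Glo luminescence after 48 h, 37 °C compound treatment (10 concentrations, maximum 1 μM or 10 μM) gave mean IC50 values. Cells were 50,000 per well of H96, a BCL2-G101V knock-in single clone derived from RS4;11 by Cas9 editing.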

[4] = molecular target: recombinant human Bcl-2-G101V protein (Homo sapiens (Human), UniProt P10415, G101V); assay: Bcl-2-G101V TR-FRET Assay; format: binding; details: Bcl-2 G101V mutant, TR-FRET; read-out: Biochemical assay (IC50, nM) Bcl-2 G101V
In short: (§1)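 Compounds were titrated at increasing concentrations against the Bcl-2-G101V–ligand interaction. TR-FRET signals were then read (ex 337 nm; em 490/520 nm). Percent inhibition was derived from the 490-to-520 nm ratio, and IC50 from a four-parameter logistic equation.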

[5] = test system: recombinant human Bcl-2-G101V protein; assay: Bcl-2-G101V TR-FRET Assay; format: binding; details: for Ratio of Bcl-2 G101V/WT: ratio of biochemical IC50 Bcl-2 G101V / Bcl-2 WT; for ratio of IC50 of Bcl-2 G101V/Bcl-2 wt, compared with Example F132b in WO2019210828 and ABT-199 (venetoclax): comparison in words
In short: as §1

[6] = Bcl-2 wild type, TR-FRET, read-out: Biochemical assay (IC50, nM) Bcl-2 WT
[7] = wild type Bcl-2, unit inferred, read-out: Bcl-2 WT

SMILES	IC50 [1, 6] [nM]	microsomal CLint at 1 μM [2] [µL/min/mg]	IC50 [3] [nM]	IC50 [4] [nM]	Ratio of Bcl-2 G101V/WT [5]	IC50 [1, 7] [nM]	half-life at 1 μM [2] [min]	ratio of IC50 of Bcl-2 G101V/Bcl-2 wt, compared with Example F132b in WO2019210828 and ABT-199 (venetoclax) [5]
COc1ccc(CN2CCN(C3CC4(CCN(c5ccc(C(=O)NS(=O)(=O)c6ccc(NC[C@H]7CC[C@](C)(O)CC7)c([N+](=O)[O-])c6)c(Oc6cnc7[nH]ccc7c6)c5)CC4)C3)[C@H](c3ccccc3C(C)C)C2)cc1OC [Example 81a, 2-((1H-pyrrolo[2,3-b]pyridin-5-yl)oxy)-4-(2-((R)-4-(3,4-dimethoxybenzyl)-2-(2-isopropylphenyl)piperazin-1-yl)-7-azaspiro[3.5]nonan-7-yl)-N-((4-((((1r,4r)-4-hydroxy-4-methylcyclohexyl)methyl)amino)-3-nitrophenyl)sulfonyl)benzamide]	0.038	< 1	0.48	0.075	2.0			
COc1cc(CN2CCN(C3CC4(C3)CN(c3ccc(C(=O)NS(=O)(=O)c5ccc(NC[C@H]6CC[C@](C)(O)CC6)c([N+](=O)[O-])c5)c(Oc5cnc6[nH]cc(F)c6c5)c3)C4)[C@H](c3ccccc3C(C)C)C2)cc2c1OCCC2 [Example 312, 2-((3-fluoro-1H-pyrrolo[2,3-b]pyridin-5-yl)oxy)-N-((4-((((1r,4r)-4-hydroxy-4-methylcyclohexyl)methyl)amino)-3-nitrophenyl)sulfonyl)-4-(6-((R)-2-(2-isopropylphenyl)-4-((8-methoxychroman-6-yl)methyl)piperazin-1-yl)-2-azaspiro[3.3]heptan-2-yl)benzamide]	0.094	3.3	0.3	0.27	2.9	0.08	423	
COc1cc(CN2CCN(C3CC4(C3)CN(c3ccc(C(=O)NS(=O)(=O)c5ccc(NC[C@H]6CC[C@](C)(O)CC6)c([N+](=O)[O-])c5)c(Oc5cnc6[nH]cc(F)c6c5)c3)C4)[C@H](c3ccccc3C(C)C)C2)ccc1C [Example 274, 2-((3-fluoro-1H-pyrrolo[2,3-b]pyridin-5-yl)oxy)-N-((4-((((1r,4r)-4-hydroxy-4-methylcyclohexyl)methyl)amino)-3-nitrophenyl)sulfonyl)-4-(6-((R)-2-(2-isopropylphenyl)-4-(3-methoxy-4-methylbenzyl)piperazin-1-yl)-2-azaspiro[3.3]heptan-2-yl) benzamide]	0.55	4	0.29	0.85	1.5	0.55	344	
COc1ccc(CN2CCN(C3CC4(CCN(c5ccc(C(=O)NS(=O)(=O)c6ccc(NC[C@H]7CC[C@](C)(O)CC7)c([N+](=O)[O-])c6)c(Oc6cnc7[nH]ccc7c6)c5)CC4)C3)[C@H](c3ccccc3C(C)C)C2)cc1 [Example 19a, 2-((1H-pyrrolo[2,3-b]pyridin-5-yl)oxy)-N-((4-((((1r,4r)-4-hydroxy-4-methylcyclohexyl)methyl)amino)-3-nitrophenyl)sulfonyl)-4-(2-((R)-2-(2-isopropylphenyl)-4-(4-methoxybenzyl)piperazin-1-yl)-7-azaspiro[3.5]nonan-7-yl)benzamide]	0.057	< 1	0.57	0.18	3.2	0.057		much lower
COc1ccc(CN2CCN(C3CC4(C3)CN(c3ccc(C(=O)NS(=O)(=O)c5ccc(NC[C@H]6CC[C@](C)(O)CC6)c([N+](=O)[O-])c5)c(Oc5cnc6[nH]ccc6c5)c3)C4)[C@H](c3ccccc3C(C)C)C2)cc1OC [Example 145, 2-((1H-pyrrolo[2,3-b]pyridin-5-yl)oxy)-4-(6-((R)-4-(3,4-dimethoxybenzyl)-2-(2-isopropylphenyl)piperazin-1-yl)-2-azaspiro[3.3]heptan-2-yl)-N-((4-((((1r,4r)-4-hydroxy-4-methylcyclohexyl)methyl)amino)-3-nitrophenyl)sulfonyl)benzamide]	0.028	1.4	0.23	0.084	3	0.028	970	much lower
CC(C)c1ccccc1[C@@H]1CN(Cc2cccc3c2OCCO3)CCN1C1CC2(CCN(c3ccc(C(=O)NS(=O)(=O)c4ccc(NC[C@H]5CC[C@](C)(O)CC5)c([N+](=O)[O-])c4)c(Oc4cnc5[nH]ccc5c4)c3)CC2)C1 [Example 79a, 2-((1H-pyrrolo[2,3-b]pyridin-5-yl)oxy)-4-(2-(R-4-((2,3-dihydrobenzo [b][1,4]dioxin-5-yl)methyl)-2-(2-isopropylphenyl)piperazin-1-yl)-7-azaspiro[3.5]nonan-7-yl)-N-((4-((((1r,4r)-4-hydroxy-4-methylcyclohexyl)methyl)amino)-3-nitrophenyl)sulfonyl)benzamide]	0.11	5.5	0.48	0.25	2.4	0.11	253	
COc1ccc(CN2CCN(C3CC4(CCN(c5ccc(C(=O)NS(=O)(=O)c6ccc(NC[C@H]7CC[C@](C)(O)CC7)c([N+](=O)[O-])c6)c(Oc6cnc7[nH]cc(F)c7c6)c5)CC4)C3)[C@H](c3ccccc3C(C)C)C2)cc1OC [Example 127, 4-(2-((R)-4-(3,4-dimethoxybenzyl)-2-(2-isopropylphenyl)piperazin-1-yl)-7-azaspiro[3.5]nonan-7-yl)-2-((3-fluoro-1H-pyrrolo[2,3-b]pyridin-5-yl)oxy)-N-((4-((((1r,4r)-4-hydroxy-4-methylcyclohexyl)methyl)amino)-3-nitrophenyl)sulfonyl)benzamide]	0.071	< 1	0.367	0.13	1.8	0.1		much lower
CC(C)c1ccccc1C1CN(Cc2ccc(C(F)(F)F)cc2)CCN1C1CC2(CCN(c3ccc(C(=O)NS(=O)(=O)c4ccc(NC[C@H]5CC[C@](C)(O)CC5)c([N+](=O)[O-])c4)c(Oc4cnc5[nH]ccc5c4)c3)CC2)C1 (some centres unmarked) [Example 41, 2-((1H-pyrrolo[2,3-b]pyridin-5-yl)oxy)-N-((4-((((1r,4r)-4-hydroxy-4-methylcyclohexyl)methyl)amino)-3-nitrophenyl)sulfonyl)-4-(2-(2-(2-isopropylphenyl)-4-(4-(trifluoromethyl)benzyl)piperazin-1-yl)-7-azaspiro[3.5]nonan-7-yl) benzamide]	0.83	1.4	7.2	3.8	4.6	0.83	997	
CC(C)c1ccccc1C1CN(Cc2cccc(F)c2)CCN1C1CC2(CCN(c3ccc(C(=O)NS(=O)(=O)c4ccc(NC[C@H]5CC[C@](C)(O)CC5)c([N+](=O)[O-])c4)c(Oc4cnc5[nH]ccc5c4)c3)CC2)C1 (some centres unmarked) [Example 43, 2-((1H-pyrrolo[2,3-b]pyridin-5-yl)oxy)-4-(2-(4-(3-fluorobenzyl)-2-(2-isopropylphenyl)piperazin-1-yl)-7-azaspiro[3.5]nonan-7-yl)-N-((4-((((1r,4r)-4-hydroxy-4-methylcyclohexyl)methyl)amino)-3-nitrophenyl)sulfonyl)benzamide]	0.31	12.8	3.27	1.3	4.2	0.31	108	
